Earlier results on 3 compounds are cited in patent US20030175329A1, “Semisolid topical hormonal compositions and methods for treatment” (Cellegy Pharmaceuticals, Inc., priority 2001, published 2003).

For series [1] the following is noted: 6 months.
The next series concerns healthy males. As to conditions: 200 mg IM weekly.
A further series concerns hypogonadal males. The settings on record: oral doses for at least 60 days; 23 hypogonadal males.

For the compound `CCCCCCC(=O)O[C@H]1CC[C@H]2[C@@H]3CCC4=CC(=O)CC[C@]4(C)[C@H]3CC[C@]12C` [testosterone enanthate], in series [1], the “serum BT levels maintained within the normal range throughout the dosing interval” value is listed as 39%, the “serum DHT levels maintained within the normal range throughout the dosing interval” value is listed as 70%, the “serum E2 levels maintained within the normal range throughout the dosing interval” value is 35% and the “serum T levels maintained within the normal range throughout the dosing interval” value was 72%. For the same compound, in the series with healthy males, the “decrease of high-density lipoprotein cholesterol” value is 14-18%.
For `CCCCCCCCCCC(=O)O[C@H]1CC[C@H]2[C@@H]3CCC4=CC(=O)CC[C@]4(C)[C@H]3CC[C@]12C` [testosterone undecanoate], the “men with measurable improvement in sexual attitudes and performance” value in the series on hypogonadal males is recorded as 61%.
With `C[C@]12CC[C@H]3[C@@H](CCC4=CC(=O)CC[C@@]43C)[C@@H]1CC[C@@H]2O` [Testosterone, testosterone], the “dose excreted in urine as glucuronide and sulfate conjugates of testosterone and its metabolites” value (following IM injection) is listed as “about 90%”. The “excreted mostly unconjugated in the feces” value (in vivo) is on record as “About 6%”.
